What is called IC50 is the concentration needed to halve the response being measured. As usually defined, the Kd is the concentration at which binding is half-saturated.

Data set [1] has as its target T1, JNK1 (Homo sapiens, UniProt P45983). Briefly: DELFIA assay, displacement of biotinylated pepJIP1 from GST-JNK1. The format is binding.
Data set [2] deals with T1, JNK1. The format is biochemical.
Data set [3] addresses JNK1 (Homo sapiens, UniProt P45984). Description: biochemical. The format is binding. As to conditions: ITC.
A further data set in a line: Plasma stability assay. The format is in vitro ADME. As to conditions: after 60 min of incubation in rat plasma, 1 μM, 37 °C.
A short description of data set [4]: Microsomal stability assay. Format: in vitro ADME. As to conditions: after 60 min of incubation in rat microsomal preparations, 4 μM, NADPH.

T1 sequence (P45983 whole entry): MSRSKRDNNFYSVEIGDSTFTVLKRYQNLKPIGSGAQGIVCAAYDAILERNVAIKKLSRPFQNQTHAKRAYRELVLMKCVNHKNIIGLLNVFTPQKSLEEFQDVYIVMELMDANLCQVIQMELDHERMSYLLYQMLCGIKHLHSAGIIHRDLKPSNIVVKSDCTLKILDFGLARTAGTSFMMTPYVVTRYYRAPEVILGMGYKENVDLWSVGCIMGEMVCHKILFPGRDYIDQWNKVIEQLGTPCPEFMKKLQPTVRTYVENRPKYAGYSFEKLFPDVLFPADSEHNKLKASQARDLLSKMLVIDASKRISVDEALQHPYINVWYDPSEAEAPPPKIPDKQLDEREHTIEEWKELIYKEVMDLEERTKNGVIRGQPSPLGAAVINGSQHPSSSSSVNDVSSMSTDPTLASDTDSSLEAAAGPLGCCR
JNK1 (Homo sapiens, UniProt P45984), sequence (P45984 whole entry): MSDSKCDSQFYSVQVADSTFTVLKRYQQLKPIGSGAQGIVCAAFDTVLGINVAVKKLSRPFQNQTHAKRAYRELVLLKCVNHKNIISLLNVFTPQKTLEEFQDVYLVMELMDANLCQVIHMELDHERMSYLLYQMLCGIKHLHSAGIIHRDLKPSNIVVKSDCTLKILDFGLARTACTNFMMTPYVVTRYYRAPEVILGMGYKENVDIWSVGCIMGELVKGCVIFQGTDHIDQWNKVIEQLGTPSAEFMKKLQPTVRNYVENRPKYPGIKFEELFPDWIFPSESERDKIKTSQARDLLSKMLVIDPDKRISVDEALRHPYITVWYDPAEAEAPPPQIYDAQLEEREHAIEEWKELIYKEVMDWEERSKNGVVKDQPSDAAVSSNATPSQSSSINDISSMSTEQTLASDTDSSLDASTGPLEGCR

On JNK1 [1], `Cc1sc(NC(=O)Cc2cccc3ccccc23)c(C(N)=O)c1C` [Compound 1, 4,5-dimethyl-2-(2-(naphthalen-1-yl)acetamido)thiophene-3-carboxamide] displayed a concentration for half-maximal inhibition (IC50) of 15.8 µM.

In the case of `O=C(Cc1cccc2ccccc12)Nc1sccc1C(=O)O` [Compound 5a], on JNK1 [2], the “JNK1 inhibitory activity (in words)” value is listed as “significant loss of JNK1 inhibitory activity”.

Turning to `COC(=O)c1ccsc1NC(=O)Cc1cccc2ccccc12` [Compound 5b], the “JNK1 inhibitory activity (in words)” value at JNK1 [2] is on record as “significant loss of JNK1 inhibitory activity”.

On to `N#Cc1ccsc1NC(=O)Cc1cccc2ccccc12` [Compound 5c], for which the “JNK1 inhibitory activity (in words)” value on JNK1 [2] is “significant loss of JNK1 inhibitory activity”.

For the compound `NC(=O)c1ccc(NC(=O)Cc2cccc3ccccc23)s1` [Compound 5f], the “JNK1 inhibitory activity (in words)” value at JNK1 [2] is “completely inactive”.

`NC(=O)c1ccsc1NC(=O)Cc1csc2ccccc12` [Compound 25]: on JNK1 [2] (increasing ATP concentrations), the “mode of inhibition versus ATP (Lineweaver-Burk)” value was “ATP competitive inhibitor”. At JNK1 [2] (increasing substrate ATF2 concentrations), the “mode of inhibition versus substrate ATF2 (Lineweaver-Burk)” value is “mixed substrate competitive inhibitor”. The figures for the dissociation constant Kd at JNK1 [3] (in presence of ATP (saturating non-hydrolizable ATP)) and at JNK1 [3] (in presence of pepJIP1 (saturating)) were 1.1 µM and 3.1 µM, respectively. For the same compound, the plasma stability entry in “Plasma stability assay” is “basically unaltered”. In data set [4], this compound yielded a degraded of 85%.

Turning to `NC(=O)c1ccsc1NC(=O)Cc1ccccc1Cl` [Compound 26], the plasma stability result in “Plasma stability assay” is “basically unaltered”. The degraded in data set [4] is given as 70%.

In the case of `NC(=O)c1ccsc1NC(=O)Cc1cccc(Br)c1` [Compound 33], the plasma stability entry in the data set “Plasma stability assay” is on record as “basically unaltered”. Moreover, the degraded in data set [4] is reported as 74%.

The record behind these values is paper PMC3089059 (Bioorganic & medicinal chemistry, 2011).
